Data taken from patent US20250263404A1, “AMINOPYRIDINES AS ACTIVATORS OF PI3 KINASE” (UCL Business Ltd, priority 2021, published 2025).
pEC50: −log10 of the molar value.

Target: PI3Kα (Homo sapiens, UniProt P42336)
Assay: pAKT S473 ELISA in A549 cells (PI3Kα activation)
Type: cell-based
Set-up: endogenous in cells; host or cells: A549
Conditions: for pEC50: A549 cells, 15 min treatment, pAKT S473 ELISA, normalised to Emax of 1 μM insulin, read-out: Av EC50; for Emax at 10 µM: A549, 0.25 h, read-out: <50% response at 10 μM
Method: EC50 values were determined by quantifying phosphorylation on S473 residues of Akt in A549 human adenocarcinoma cells by ELISA (enzyme linked immunoadsorbent assay, R&D Systems, DYC887BE). A549 cells were seeded into 96-well plates (50,000 cells/well) in DMEM supplemented with 10% foetal bovine serum and 1% penicillin-streptomyocin. Following 24 h in culture cells were starved for 24 h in serum-free DMEM before 15 minute treatment with a concentration response curve of compounds. Experimental compounds were diluted in DMSO into […] 1:3 concentration response curves in polypropylene V-bottom plates (SLS MIC9050). Concentration response curves were diluted to a 3× stock in serum-free DMEM. Standard 8-point concentration response curves were performed at 50, 16.7, 5.6, 1.9, 0.6, 0.2, 0.07, 0.02 μM and serum-free DMEM containing 0.5% DMSO was used as a negative control. […] A549 cells were seeded at 50,000 cells per well in 96-well plates in DMEM (10% FBS+1% P/S). The next day cells were washed once with PBS before addition of serum-free DMEM for 24 h. On the day of treatment cells, were incubated in fresh serum-free DMEM prior to treatment. Compounds solubilised to 10 mM in DMSO were diluted 1:3 in an 8-point concentration response curve in DMSO. Concentration response curves were diluted in serum-free DMEM by transfer into intermediate plates using a BRAVO liquid handler (Agilent). Intermediate plates were then used to treat cell plates using the BRAVO liquid handler. Compound concentration response curves had atop concentration of 50 μM and a final well concentration of 0.5% DMSO. Cell plates were treated for 15 min at 37° C., 5% CO2 before being washed with ice-cold PBS and lysed in lysis buffer 6 (R&D Systems #895561) and freezing at −80° C. Levels of pAKT-S473 were determined using the phospho-AKT (S473) pan-specific Duoset IC ELISA (R&D Systems #DYC887BE) in 96-well white high-binding plates (Corning #3922) according to manufacturer's instructions. Endpoint luminescence was measured using a Sense (Hidex) platereader. […] Data were transformed and EC50 data were determined by variable slope (4 parameters) non-linear regression using Prism 7 (Graphpad).

Chain of PI3Kα (P42336 whole entry): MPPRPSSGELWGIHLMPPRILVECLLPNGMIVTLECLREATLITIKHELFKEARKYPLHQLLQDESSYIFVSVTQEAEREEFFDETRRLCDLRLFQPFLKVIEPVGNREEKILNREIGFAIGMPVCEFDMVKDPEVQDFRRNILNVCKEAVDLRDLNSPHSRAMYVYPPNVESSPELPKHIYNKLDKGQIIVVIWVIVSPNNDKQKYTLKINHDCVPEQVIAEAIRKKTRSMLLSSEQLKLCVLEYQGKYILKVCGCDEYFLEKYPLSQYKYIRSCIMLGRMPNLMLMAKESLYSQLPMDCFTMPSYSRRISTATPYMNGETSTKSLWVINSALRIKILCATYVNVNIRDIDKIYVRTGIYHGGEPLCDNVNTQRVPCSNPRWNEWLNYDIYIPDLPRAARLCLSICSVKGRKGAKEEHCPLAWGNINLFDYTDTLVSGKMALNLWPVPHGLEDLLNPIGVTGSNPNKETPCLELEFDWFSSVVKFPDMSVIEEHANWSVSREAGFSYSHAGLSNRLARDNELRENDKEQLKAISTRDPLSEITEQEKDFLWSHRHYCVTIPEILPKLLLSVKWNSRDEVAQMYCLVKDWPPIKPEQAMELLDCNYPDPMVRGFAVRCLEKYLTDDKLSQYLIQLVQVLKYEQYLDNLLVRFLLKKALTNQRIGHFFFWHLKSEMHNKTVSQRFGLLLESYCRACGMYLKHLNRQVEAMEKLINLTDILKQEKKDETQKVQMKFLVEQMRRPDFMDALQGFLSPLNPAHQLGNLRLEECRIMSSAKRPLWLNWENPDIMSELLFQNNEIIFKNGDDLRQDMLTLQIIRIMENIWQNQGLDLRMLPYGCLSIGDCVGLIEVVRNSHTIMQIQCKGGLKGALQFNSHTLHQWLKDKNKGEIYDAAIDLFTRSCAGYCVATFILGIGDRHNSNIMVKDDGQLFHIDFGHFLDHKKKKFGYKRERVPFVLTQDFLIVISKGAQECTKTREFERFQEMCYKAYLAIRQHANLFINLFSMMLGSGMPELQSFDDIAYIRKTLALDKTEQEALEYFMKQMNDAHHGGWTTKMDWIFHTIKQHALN
Chain of PI3Kα (P27986 whole entry partner): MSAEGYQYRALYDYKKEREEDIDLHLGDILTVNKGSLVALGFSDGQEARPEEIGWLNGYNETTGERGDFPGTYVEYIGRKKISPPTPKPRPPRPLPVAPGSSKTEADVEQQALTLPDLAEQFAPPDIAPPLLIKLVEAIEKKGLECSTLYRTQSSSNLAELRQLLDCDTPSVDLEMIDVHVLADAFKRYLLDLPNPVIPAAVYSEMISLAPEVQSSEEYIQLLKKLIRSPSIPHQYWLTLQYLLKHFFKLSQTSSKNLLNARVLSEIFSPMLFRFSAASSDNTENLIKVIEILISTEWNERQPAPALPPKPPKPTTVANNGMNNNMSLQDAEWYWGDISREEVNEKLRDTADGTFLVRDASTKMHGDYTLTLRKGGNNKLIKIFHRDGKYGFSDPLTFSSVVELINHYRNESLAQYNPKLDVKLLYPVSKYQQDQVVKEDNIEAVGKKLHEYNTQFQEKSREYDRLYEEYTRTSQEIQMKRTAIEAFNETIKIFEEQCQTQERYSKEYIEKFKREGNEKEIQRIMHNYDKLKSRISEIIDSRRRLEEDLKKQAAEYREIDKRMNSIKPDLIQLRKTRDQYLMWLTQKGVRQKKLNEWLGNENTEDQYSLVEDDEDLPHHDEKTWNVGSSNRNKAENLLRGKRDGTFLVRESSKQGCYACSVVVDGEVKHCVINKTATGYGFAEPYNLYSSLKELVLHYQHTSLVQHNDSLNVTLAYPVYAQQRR

| SMILES | pEC50 | Emax at 10 µM [%] |
| --- | --- | --- |
| CCN1CCN(c2ccc(Nc3cc(Nc4cccc(S(C)(=O)=O)c4)ccn3)cc2)CC1 [82 (2108)] | 5.82 | – |
| CCN1CCN(c2ccc(Nc3cc(Nc4cc(C(C)(C)C)nn4C)ccn3)cc2)CC1 [76 (2102)] | 5.66 | – |
| COCCN1CCN(c2ccc(Nc3cc(Nc4cccc5c4N(C(C)=O)CC5)ccn3)c(OC)c2)CC1 [27 (1994)] | 5.89 | – |
| CC(=O)N1CCc2cc(Nc3cc(Nc4cc(C(C)(C)C)nn4C)ccn3)ccc21 [83 (2109)] | 5.56 | < 50 |
| COc1cc(N2CCN(C)CC2)ccc1Nc1cc(Nc2ccc(S(C)(=O)=O)cc2)ccn1 [52 (2038)] | 5.42 | – |
| CC(=O)N1CCc2cccc(Nc3ccnc(Nc4cc(-c5ccccc5)nn4C)c3)c21 [46 (2023)] | < 4.30 | – |
| CC(=O)N1CCc2cccc(Nc3ccnc(Nc4nn(C)c5ccccc45)c3)c21 [48 (2027)] | 5.83 | < 50 |
| CC(=O)N1CCc2ccc(Nc3cc(Nc4cccc5c4N(C(C)=O)CC5)ccn3)cc21 [73 (2073)] | 6.30 | < 50 |
| COc1cc(Nc2cc(Nc3cccc4c3N(C(C)=O)CC4)ccn2)cc(OC)c1OC [R3 (1887)] | 5.71 | – |
| CNC(=O)c1ccccc1Nc1ccnc(Nc2ccc(N3CCN(C)CC3)cc2OC)c1 [8 (1934)] | < 4.30 | < 50 |
| CC(=O)N1CCc2cc(Nc3cc(Nc4cc(C(C)C)nn4C)ccn3)ccc21 [85 (2110)] | < 4.57 | < 50 |
| COc1cc(N2CCN(C)CC2)ccc1Nc1cc(Nc2ccc3ncccc3c2)ccn1 [57 (2047)] | < 4.30 | – |
| COc1cc(N2CCN(C)CC2)ccc1Nc1cc(Nc2cc(C(C)(C)C)nn2C)ccn1 [29 (1998)] | 6.05 | – |
| CC(=O)N1CCc2cccc(Nc3ccnc(Nc4ccc5ccccc5n4)c3)c21 [43 (2020)] | < 4.30 | – |
| COc1cc(N2CCN(C)CC2)ccc1Nc1cc(Nc2cc(C)cc3c2N(C(C)=O)CC3)ccn1 [19 (1958)] | 6.00 | – |
| CC(=O)N1CCc2cccc(Nc3ccnc(Nc4ccc(C(=O)N(C)C)cc4)c3)c21 [75 (2101)] | < 4.72 | < 50 |
| COc1cc(N2CCN(C)CC2)ccc1Nc1cc(Nc2cccc3c2N(C(C)=O)CC3)cc(C)n1 [10 (1936)] | 5.27 | < 50 |
| CC(=O)N1CCc2cccc(Nc3ccnc(Nc4ccc(N5CCOCC5)cc4)c3)c21 [38 (2015)] | 5.88 | – |
| CCN1CCN(c2ccc(Nc3cc(Nc4cc(C(C)C)nn4C)ccn3)cc2)CC1 [77 (2103)] | 5.68 | – |

| SMILES | pEC50 | Emax at 10 µM [%] |
| --- | --- | --- |
| CNC(=O)c1cccc(Nc2ccnc(Nc3ccc(N4CCN(C)CC4)cc3OC)c2)c1 [58 (2049)] | 5.87 | – |
| COc1cc(N2CCN(C)CC2)ccc1Nc1cc(Nc2ccc3scnc3c2)ccn1 [51 (2031)] | 6.51 | – |
| COc1cc(N2CCN(C)CC2)ccc1Nc1nccc(Nc2cccc3c2N(C(C)=O)CC3)c1C [16 (1944)] | 5.26 | < 50 |
| COc1cc(N2CCN(C)CC2)ccc1Nc1cc(Nc2cccnc2)ccn1 [64 (2061)] | 5.80 | – |
| COc1cc(N2CCN(C)CC2)ccc1Nc1cc(Nc2ccncc2)ccn1 [55 (2045)] | < 5.21 | – |
| CC(=O)N1CCc2cccc(Nc3ccnc(Nc4ccc(N5CCOCC5)cc4C)c3)c21 [94 (2350)] | 5.34 | – |
| CC(=O)N1CCc2cccc(Nc3ccnc(Nc4ccc(Oc5ccccc5)cc4)c3)c21 [36 (2013)] | 5.06 | – |
| COc1cc(N2CCN(C)CC2)ccc1Nc1cc(Nc2cccc(-n3ccnc3)c2)ccn1 [65 (2063)] | 5.82 | – |
| COc1cc(Nc2cc(Nc3ccn(C)n3)ccn2)cc(OC)c1OC [2 (1903)] | ≤ 4.30 | – |
| CC(=O)N1CCc2cccc(Nc3ccnc(-c4cnn(C5CCNCC5)c4)c3)c21 [R5 (1962)] | 6.23 | < 50 |
| CNC(=O)c1ccc(Nc2ccnc(Nc3ccc4c(c3)CCN4C(C)=O)c2)cc1 [87 (2112)] | < 4.57 | < 50 |
| CCN1CCN(c2ccc(Nc3cc(Nc4cccc(C(=O)NC)c4)ccn3)cc2)CC1 [78 (2104)] | 5.70 | – |
| COc1cc(N2CCN(C)CC2)ccc1Nc1cc(Nc2cccc(S(C)(=O)=O)c2)ccn1 [54 (2043)] | 5.91 | – |
| CCOCC(=O)N1CCc2cccc(Nc3ccnc(Nc4ccc(N5CCN(C)CC5)cc4OC)c3)c21 [21 (1961)] | 5.18 | – |
| COc1cc(N2CCN(C)CC2)ccc1Nc1cc(Nc2cccc3nccnc23)ccn1 [62 (2056)] | 5.89 | < 50 |
| CC(=O)N1CCc2cccc(Nc3ccnc(Nc4cccc(S(C)(=O)=O)c4)c3)c21 [102 (2359)] | < 4.30 | – |
| CNC(=O)c1ccccc1Nc1ccnc(Nc2ccc(N3CCOCC3)cc2OC)c1 [9 (1935)] | 5.80 | < 50 |
| CCC(=O)N1CCc2cccc(Nc3ccnc(Nc4ccc(N5CCN(C)CC5)cc4OC)c3)c21 [20 (1959)] | 5.64 | – |
| CNC(=O)c1ccc(Nc2ccnc(Nc3ccc(N4CCN(C)CC4)cc3OC)c2)cc1 [61 (2055)] | 5.58 | – |

| SMILES | pEC50 | Emax at 10 µM [%] |
| --- | --- | --- |
| COc1cc(N2CCN(C)CC2)ccc1Nc1cc(Nc2ccc3c(c2)CCN3C(C)=O)ccn1 [24 (1989)] | 5.90 | – |
| COc1cc(N2CCN(C)CC2)ccc1Nc1cc(-c2cccc(C(=O)N(C)C)c2)ccn1 [103 (1940)] | < 4.30 | < 50 |
| COc1cc(N2CCN(C3CC3)CC2)ccc1Nc1cc(Nc2cccc3c2N(C(C)=O)CC3)ccn1 [97 (2354)] | 6.01 | – |
| CCOc1cc(N2CCN(C)CC2)ccc1Nc1cc(Nc2cccc3c2N(C(C)=O)CC3)ccn1 [31 (2007)] | 5.81 | – |
| CC(=O)N1CCc2cccc(Nc3ccnc(Nc4cccc5ncccc45)c3)c21 [68 (2067)] | 5.40 | – |
| CC(=O)N1CCc2cccc(Nc3ccnc(Nc4ccnc5ccccc45)c3)c21 [98 (2355)] | < 4.30 | – |
| CC(=O)N1CCc2cccc(Nc3ccnc(Nc4ccc(N5CCN(C)CC5)cc4)c3)c21 [11 (1937)] | 5.58 | – |
| CC(=O)N1CCc2cccc(Nc3ccnc(Nc4ccc(C#N)cc4)c3)c21 [41 (2018)] | 5.76 | < 50 |
| COc1cc(N2CCN(C(C)C)CC2)ccc1Nc1cc(Nc2cccc3c2N(C(C)=O)CC3)ccn1 [14 (1942)] | 5.64 | – |
| COc1cc(N2CCN(C)CC2)ccc1Nc1cc(Nc2cc(-c3ccccc3)nn2C)ccn1 [28 (1995)] | 5.85 | < 50 |
| CC(=O)N1CCc2cccc(Nc3ccnc(Nc4cccc(Oc5ccccc5)c4)c3)c21 [34 (2010)] | < 4.30 | – |
| COc1cc(C(=O)N2CCOCC2)ccc1Nc1cc(Nc2cccc3c2N(C(C)=O)CC3)ccn1 [91 (2347)] | 5.64 | – |
| CNC(=O)c1cccc(Nc2ccnc(Nc3ccc4c(c3)CCN4C(C)=O)c2)c1 [86 (2111)] | < 4.54 | < 50 |
| CC(=O)N1CCc2cccc(Nc3ccnc(Nc4ccc(N5CCN(C)CC5)cc4C)c3)c21 [95 (2351)] | 4.83 | – |
| CCN1CCN(c2ccc(Nc3cc(Nc4ccncn4)ccn3)cc2)CC1 [80 (2106)] | ≤ 4.30 | – |
| COc1cc(N2CCN(C)CC2)ccc1Nc1cc(Nc2ccccc2)ccn1 [23 (1971)] | 5.34 | – |
| COc1cc(N2CCN(C)CC2)ccc1Nc1cc(Nc2cccc(-n3cnnc3)c2)ccn1 [66 (2064)] | 4.76 | – |
| COc1cc(N2CCCCC2)ccc1Nc1cc(Nc2cccc3c2N(C(C)=O)CC3)ccn1 [13 (1941)] | 5.36 | – |
| COc1ccc(Nc2ccnc(Nc3ccc(N4CCN(C)CC4)cc3OC)c2)cc1NC(C)=O [56 (2046)] | 5.89 | – |
